ChEMBL document CHEMBL5465560, “Selectivity Literature for EUbOPEN Chemogenomic Library” (2024)

How the values were obtained:
[1] = molecular target: Fibroblast growth factor receptor 3 (Homo sapiens, UniProt P22607); assay: Selectivity interaction (Kinase panel (DSF assay)) EUB0001559a FGFR3
[2] = molecular target: Myosin light chain kinase, smooth muscle (Homo sapiens, UniProt Q15746); assay: Selectivity interaction (KinomeScan (DiscoverX)) EUB0000666a MYLK; settings: at 10 µM
[3] = molecular target: Bone morphogenetic protein receptor type-1A (Homo sapiens, UniProt P36894); settings: at 10 µM
[4] = molecular target: Ribosomal protein S6 kinase alpha-5 (Homo sapiens) (UniProt O75582); assay: Selectivity interaction (ActivX KiNativ screen (kinase selectivity in THP-1 cell lysates)) EUB0000639a RPS6KA5; format: subcellular; settings: lysate
[5] = molecular target: T1, Mitogen-activated protein kinase 12 (Homo sapiens) (UniProt P53778); assay: Selectivity interaction (KinomeScan (DiscoverX)) EUB0001049a MAPK12; settings: at 1 µM
T1 sequence (whole entry): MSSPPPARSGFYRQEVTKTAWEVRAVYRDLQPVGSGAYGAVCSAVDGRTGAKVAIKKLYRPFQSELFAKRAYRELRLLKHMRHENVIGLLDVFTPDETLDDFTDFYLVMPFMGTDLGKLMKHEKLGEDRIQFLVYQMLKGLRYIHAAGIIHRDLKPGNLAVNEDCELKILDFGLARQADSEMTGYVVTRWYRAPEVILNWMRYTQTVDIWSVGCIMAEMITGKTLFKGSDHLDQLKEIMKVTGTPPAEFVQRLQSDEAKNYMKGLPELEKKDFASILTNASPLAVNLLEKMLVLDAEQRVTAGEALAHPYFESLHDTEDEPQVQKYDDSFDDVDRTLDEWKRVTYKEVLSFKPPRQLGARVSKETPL

[6] = Selectivity interaction (Eurofins CEREP Diversity Profile (receptors and ion channels)) EUB0000279b CRH; settings: at 10 µM
[7] = molecular target: Phosphatidylinositol 4-kinase beta (Homo sapiens, UniProt Q9UBF8); assay: Selectivity interaction (Ambit KINOMEscan and KiNATiv profiling in Jurkat cells) EUB0000090b PI4KB; format: cell-based; settings: at 1 µM
[8] = molecular target: T2, Mitogen-activated protein kinase kinase kinase 5 (Homo sapiens) (UniProt Q99683); assay: Selectivity interaction (ActivX KiNativ screen (ex vivo kinase selectivity in human PBMCs)) EUB0001619a MAP3K5; format: cell-based; settings: PBMC, at 1 µM
T2 sequence (whole entry): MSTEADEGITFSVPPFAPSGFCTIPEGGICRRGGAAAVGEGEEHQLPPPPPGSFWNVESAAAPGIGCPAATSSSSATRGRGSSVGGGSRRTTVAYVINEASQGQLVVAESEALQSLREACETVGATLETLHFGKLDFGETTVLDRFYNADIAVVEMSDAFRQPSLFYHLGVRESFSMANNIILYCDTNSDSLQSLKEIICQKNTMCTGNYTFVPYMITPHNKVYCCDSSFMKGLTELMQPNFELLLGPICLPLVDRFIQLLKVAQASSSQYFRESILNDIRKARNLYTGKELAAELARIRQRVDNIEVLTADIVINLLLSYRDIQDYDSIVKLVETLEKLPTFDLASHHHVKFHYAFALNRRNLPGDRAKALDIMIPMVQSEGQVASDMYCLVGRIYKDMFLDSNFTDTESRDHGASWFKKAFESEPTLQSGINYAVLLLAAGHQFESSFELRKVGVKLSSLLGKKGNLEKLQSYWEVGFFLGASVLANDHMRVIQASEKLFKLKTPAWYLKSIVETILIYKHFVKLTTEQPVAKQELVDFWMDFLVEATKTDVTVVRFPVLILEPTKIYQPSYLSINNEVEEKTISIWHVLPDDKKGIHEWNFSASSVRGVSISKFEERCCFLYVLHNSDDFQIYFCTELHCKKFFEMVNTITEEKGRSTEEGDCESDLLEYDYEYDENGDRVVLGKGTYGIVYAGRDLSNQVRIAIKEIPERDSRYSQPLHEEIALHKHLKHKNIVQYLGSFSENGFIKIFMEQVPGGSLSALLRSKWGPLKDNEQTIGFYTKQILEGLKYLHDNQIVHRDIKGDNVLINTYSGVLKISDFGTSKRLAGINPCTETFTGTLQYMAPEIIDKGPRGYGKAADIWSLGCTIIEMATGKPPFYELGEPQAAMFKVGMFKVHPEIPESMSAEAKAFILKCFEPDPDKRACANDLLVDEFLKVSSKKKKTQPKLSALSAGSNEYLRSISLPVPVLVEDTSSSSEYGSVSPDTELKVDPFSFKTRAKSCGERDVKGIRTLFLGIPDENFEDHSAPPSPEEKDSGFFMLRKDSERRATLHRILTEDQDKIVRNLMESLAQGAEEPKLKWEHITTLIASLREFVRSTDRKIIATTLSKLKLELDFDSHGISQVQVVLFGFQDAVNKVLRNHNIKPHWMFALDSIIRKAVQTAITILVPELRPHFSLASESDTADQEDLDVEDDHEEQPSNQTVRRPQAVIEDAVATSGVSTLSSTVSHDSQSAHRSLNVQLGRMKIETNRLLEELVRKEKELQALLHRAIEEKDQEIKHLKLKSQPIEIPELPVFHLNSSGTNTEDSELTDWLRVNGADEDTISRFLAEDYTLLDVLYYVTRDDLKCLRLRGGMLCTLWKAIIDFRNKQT

Sequence of Ribosomal protein S6 kinase alpha-5 (Homo sapiens) (O75582 whole entry, looked up): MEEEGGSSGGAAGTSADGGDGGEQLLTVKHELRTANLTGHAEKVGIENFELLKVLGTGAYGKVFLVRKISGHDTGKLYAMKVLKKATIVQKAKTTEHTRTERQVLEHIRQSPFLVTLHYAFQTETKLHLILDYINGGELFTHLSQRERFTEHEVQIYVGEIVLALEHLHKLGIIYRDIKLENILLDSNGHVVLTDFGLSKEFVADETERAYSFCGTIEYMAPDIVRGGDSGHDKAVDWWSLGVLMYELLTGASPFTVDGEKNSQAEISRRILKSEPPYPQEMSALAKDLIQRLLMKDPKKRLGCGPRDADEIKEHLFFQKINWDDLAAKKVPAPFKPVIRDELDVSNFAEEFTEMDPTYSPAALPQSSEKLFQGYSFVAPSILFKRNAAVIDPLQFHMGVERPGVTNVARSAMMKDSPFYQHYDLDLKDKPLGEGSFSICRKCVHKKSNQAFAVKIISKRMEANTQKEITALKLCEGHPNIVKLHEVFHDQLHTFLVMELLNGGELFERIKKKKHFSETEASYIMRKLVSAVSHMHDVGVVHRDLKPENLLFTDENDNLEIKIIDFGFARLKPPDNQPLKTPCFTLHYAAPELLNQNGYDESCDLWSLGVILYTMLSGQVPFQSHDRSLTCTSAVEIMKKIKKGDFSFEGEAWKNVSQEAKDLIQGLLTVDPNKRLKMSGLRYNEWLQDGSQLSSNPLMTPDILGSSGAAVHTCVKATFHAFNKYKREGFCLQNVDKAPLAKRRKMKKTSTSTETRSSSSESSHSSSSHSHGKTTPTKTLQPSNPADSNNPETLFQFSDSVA
Sequence of Bone morphogenetic protein receptor type-1A (P36894 whole entry): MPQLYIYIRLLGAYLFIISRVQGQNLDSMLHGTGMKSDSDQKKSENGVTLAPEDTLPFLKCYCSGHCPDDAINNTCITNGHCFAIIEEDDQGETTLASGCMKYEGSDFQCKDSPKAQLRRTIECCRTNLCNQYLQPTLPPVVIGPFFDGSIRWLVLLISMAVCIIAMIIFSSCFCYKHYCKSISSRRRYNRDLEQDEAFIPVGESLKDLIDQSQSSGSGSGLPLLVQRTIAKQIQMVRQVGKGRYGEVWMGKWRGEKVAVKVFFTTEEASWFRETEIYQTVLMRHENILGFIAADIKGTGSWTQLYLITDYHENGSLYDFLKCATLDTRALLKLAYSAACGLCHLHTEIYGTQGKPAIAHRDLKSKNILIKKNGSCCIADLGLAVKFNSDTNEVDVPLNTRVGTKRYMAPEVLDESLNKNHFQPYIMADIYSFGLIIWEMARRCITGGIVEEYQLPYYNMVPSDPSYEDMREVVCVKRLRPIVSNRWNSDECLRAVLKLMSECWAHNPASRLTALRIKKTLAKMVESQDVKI
Sequence of Myosin light chain kinase, smooth muscle (Q15746 whole entry): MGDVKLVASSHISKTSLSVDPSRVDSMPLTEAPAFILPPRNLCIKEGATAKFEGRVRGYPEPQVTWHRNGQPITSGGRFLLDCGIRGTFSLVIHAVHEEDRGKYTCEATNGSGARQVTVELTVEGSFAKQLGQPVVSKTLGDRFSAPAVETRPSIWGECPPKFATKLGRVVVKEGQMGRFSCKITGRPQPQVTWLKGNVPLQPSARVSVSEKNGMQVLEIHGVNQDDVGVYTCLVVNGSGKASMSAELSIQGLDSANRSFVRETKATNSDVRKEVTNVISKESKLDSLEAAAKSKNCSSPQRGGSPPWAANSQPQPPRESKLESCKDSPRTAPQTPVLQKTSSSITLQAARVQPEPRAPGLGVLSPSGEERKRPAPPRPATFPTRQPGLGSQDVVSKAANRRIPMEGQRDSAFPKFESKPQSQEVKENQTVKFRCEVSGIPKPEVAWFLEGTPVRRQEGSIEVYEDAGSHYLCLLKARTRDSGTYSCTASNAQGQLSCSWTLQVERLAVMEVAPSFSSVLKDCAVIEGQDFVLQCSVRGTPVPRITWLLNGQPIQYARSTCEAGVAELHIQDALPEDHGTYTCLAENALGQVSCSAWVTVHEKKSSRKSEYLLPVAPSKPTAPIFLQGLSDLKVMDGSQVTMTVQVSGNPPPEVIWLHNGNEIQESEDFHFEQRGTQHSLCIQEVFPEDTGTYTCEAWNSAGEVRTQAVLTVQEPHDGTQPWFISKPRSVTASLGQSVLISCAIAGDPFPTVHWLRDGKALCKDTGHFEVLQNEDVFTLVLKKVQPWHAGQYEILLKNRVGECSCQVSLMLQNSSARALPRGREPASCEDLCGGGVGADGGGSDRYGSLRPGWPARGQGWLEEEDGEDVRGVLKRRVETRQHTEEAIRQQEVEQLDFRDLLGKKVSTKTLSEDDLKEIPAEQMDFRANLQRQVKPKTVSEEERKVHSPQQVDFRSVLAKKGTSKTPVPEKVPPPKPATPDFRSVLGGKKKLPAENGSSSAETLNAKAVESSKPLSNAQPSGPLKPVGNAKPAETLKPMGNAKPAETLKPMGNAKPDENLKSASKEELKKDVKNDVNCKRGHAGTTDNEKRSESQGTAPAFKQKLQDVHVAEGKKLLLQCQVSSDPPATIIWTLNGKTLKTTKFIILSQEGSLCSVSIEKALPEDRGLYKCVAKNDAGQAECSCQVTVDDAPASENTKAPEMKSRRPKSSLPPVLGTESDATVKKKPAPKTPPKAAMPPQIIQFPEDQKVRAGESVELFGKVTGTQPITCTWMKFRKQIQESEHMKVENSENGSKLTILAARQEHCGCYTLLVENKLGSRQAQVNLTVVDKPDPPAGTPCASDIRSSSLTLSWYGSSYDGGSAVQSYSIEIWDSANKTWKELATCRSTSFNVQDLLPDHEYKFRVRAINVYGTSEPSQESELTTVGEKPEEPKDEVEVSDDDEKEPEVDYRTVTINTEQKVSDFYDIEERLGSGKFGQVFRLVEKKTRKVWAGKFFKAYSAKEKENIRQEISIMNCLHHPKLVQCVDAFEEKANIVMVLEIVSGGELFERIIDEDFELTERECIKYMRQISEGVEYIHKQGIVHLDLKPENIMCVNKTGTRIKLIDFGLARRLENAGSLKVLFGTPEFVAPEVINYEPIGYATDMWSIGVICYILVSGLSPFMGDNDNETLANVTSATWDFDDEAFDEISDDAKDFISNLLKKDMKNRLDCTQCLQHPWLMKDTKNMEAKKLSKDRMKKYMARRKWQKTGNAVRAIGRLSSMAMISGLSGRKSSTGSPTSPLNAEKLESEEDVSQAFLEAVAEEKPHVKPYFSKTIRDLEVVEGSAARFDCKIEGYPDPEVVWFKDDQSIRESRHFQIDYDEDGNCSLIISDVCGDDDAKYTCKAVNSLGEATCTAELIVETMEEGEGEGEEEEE
Sequence of Phosphatidylinositol 4-kinase beta (Q9UBF8 2-816 limits assumed): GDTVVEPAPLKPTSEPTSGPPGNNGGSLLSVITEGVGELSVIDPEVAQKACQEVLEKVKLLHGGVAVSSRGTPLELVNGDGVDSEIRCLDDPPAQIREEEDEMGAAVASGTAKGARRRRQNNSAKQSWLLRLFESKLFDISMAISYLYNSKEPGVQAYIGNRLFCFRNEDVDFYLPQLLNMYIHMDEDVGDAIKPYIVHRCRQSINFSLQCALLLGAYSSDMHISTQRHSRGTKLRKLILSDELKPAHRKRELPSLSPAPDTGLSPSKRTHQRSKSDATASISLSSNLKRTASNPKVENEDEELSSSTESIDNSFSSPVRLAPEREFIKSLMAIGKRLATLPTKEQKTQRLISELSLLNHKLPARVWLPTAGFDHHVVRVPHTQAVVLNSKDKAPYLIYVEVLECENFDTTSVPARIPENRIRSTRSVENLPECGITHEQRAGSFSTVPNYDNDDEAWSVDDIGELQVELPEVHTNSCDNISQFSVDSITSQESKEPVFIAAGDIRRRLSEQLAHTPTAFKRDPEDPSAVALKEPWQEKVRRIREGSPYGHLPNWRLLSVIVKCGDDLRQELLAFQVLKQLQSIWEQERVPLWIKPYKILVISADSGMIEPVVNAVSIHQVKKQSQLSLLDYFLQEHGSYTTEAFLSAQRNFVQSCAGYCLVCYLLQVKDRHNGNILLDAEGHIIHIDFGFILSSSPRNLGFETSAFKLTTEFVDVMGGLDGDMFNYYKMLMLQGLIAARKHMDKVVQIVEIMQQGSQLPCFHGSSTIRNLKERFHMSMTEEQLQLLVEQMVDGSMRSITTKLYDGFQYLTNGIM
Sequence of Fibroblast growth factor receptor 3 (P22607 23-806 limits assumed): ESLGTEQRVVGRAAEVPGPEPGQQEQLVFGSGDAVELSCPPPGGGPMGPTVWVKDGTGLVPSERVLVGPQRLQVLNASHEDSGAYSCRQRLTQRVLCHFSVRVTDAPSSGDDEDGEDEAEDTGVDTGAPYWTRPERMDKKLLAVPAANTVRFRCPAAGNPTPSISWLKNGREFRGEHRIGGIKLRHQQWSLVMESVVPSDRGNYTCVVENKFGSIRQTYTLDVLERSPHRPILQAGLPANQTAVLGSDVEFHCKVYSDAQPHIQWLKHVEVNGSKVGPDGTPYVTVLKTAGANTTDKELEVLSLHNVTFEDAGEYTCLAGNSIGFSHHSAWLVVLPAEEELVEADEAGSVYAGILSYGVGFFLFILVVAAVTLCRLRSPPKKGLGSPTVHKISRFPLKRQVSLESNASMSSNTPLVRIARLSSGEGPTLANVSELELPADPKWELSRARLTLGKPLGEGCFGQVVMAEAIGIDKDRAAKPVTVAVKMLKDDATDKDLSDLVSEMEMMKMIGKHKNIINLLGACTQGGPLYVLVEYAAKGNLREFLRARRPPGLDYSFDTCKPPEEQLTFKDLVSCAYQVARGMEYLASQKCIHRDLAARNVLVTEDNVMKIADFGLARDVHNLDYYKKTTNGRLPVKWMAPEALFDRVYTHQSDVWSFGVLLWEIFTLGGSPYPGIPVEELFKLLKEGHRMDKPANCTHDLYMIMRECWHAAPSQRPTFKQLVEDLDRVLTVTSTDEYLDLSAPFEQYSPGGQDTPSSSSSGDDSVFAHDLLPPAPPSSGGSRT

Compound `CN(C(=O)c1cnn2cccnc12)c1cc2c(cc1N1CCOCC1)C(=O)N(C[C@@H](F)C(C)(C)O)C2` has a dTM [1] of -0.3 K.

In the case of `O=C(NOC[C@H](O)CO)c1ccc(F)c(F)c1Nc1ccc(I)cc1F`, the % of control [2] is reported as 100%.

For `Cc1cc([C@@H](C)Nc2ccccc2C(=O)O)c2nc(N3CCOCC3)cc(=O)n2c1` [AZD-6482], the % of control [3] was 98%.

With `CC[C@@H]1[C@H](F)C(=O)N[C@@H]1COc1nccc2cc(C(N)=O)c(OC)cc12` [ZIMLOVISERTIB] the % of inhibition ([4]; at 0.01 µM) was 2.2%, the % of inhibition ([4]; at 0.04 µM) was -1% and the % of inhibition ([4]; at 0.2 µM) was -6.1%. It also gave a % of inhibition ([4]; at 1 µM) of -9.7% and a % of inhibition ([4]; at 5 µM) of -27.5%.

In the case of `COc1cc(Nc2nc(C)cc(-c3cnn4nc(OC)ccc34)n2)cc(C(F)(F)F)c1`, the % of control [5] is reported as 71%.

In the case of `CC(=O)c1cc(-c2ccccc2OCC2CC2)c2ncccn12`, the % of control [6] is reported as 118%.

For `CN(C)C/C=C/C(=O)Nc1ccc(C(=O)N2CCCC(Nc3ncc(Cl)c(-c4c[nH]c5ccccc45)n3)C2)cc1` (configuration not stated), the % of control [7] was 88%.

Compound `N#Cc1cccc(-c2c[nH]c3ncnc(N4CCOCC4)c23)c1` has a % of inhibition [8] of 21%.
